According to publication doi:10.1101/2023.02.24.529844v1, “Characterization of new highly selective pyrazolo[4,3-d]pyrimidine inhibitor of CDK7” (biorxiv, 2023):

Experiments:
CK1δ = biological target: T1, CK1δ (Homo sapiens, UniProt P48730); test: Eurofins kinase selectivity panel; format: biochemical; details: read-out: residual activity at 1 μM
T1 construct: gene CSNK1D; Eurofins Discovery kinase panel

CDK16 = biological target: T2, CDK16 (Homo sapiens, UniProt Q00536); test: Eurofins kinase selectivity panel; format: biochemical; details: read-out: residual activity at 1 μM
T2 construct: Eurofins Discovery kinase panel

CDK7 = biological target: T3, CDK7 (Homo sapiens, UniProt P50613); test: [gamma-33P]ATP radiometric kinase assay; format: biochemical
T3 construct: recombinant CDK7; with Cyclin-H

CDK2/cyclin E = CDK2/cyclin E (Homo sapiens, UniProt P24941); test: biochemical; design: radiometric kinase inhibition assay with [gamma-33P]ATP, P-81 phosphocellulose spotting, digital image analysis
Method: (§1) The kinase inhibition assay was performed as previously described. Briefly, all tested kinases were incubated with specific substrates in the presence of ATP, 0.05 µCi [γ^33P]ATP and the LGR6768 compound in a final volume of 10 µl. The reaction was stopped by adding 3% aq. H3PO4. Aliquots were spotted onto P-81 phosphocellulose (Whatman), washed three times with 0.5% aq. H3PO4 and air-dried. Kinase inhibition was quantified using a FLA-7000 digital image analyser (Fujifilm). The drug doses required to decrease kinase activities by 50%, represented by the IC50 values, were determined from dose[…]response curves. The selectivity profiling of LGR6768 was performed on a panel of 50 kinases, including known off-targets of other structurally related pyrazolo[4,3-d]pyrimidines or isosteres, such as roscovitine or CR8 [31]. Given the high structural similarity within the CDK family, we also evaluated LGR6768 against 14 CDKs to assess its selectivity across them. The compound was applied at a 1 µM concentration, and the experiment confirmed selective reduction of the enzymatic activity of CDK7 to 4%.

CDK1/cyclin B = CDK1/cyclin B (Homo sapiens, UniProt P06493); test: biochemical; design: radiometric kinase inhibition assay with [gamma-33P]ATP, P-81 phosphocellulose spotting, digital image analysis
Method: as §1

CDK9/cyclin T = CDK9/cyclin T (Homo sapiens, UniProt P50750); test: biochemical; design: radiometric kinase inhibition assay with [gamma-33P]ATP, P-81 phosphocellulose spotting, digital image analysis
Method: as §1

CDK5/p25 = CDK5/p25 (Homo sapiens, UniProt Q00535); test: biochemical; design: radiometric kinase inhibition assay with [gamma-33P]ATP, P-81 phosphocellulose spotting, digital image analysis
Method: as §1

CDK2/cyclin A = CDK2/cyclin A (Homo sapiens, UniProt P24941); test: biochemical; design: radiometric kinase inhibition assay with [gamma-33P]ATP, P-81 phosphocellulose spotting, digital image analysis
Method: as §1

CDK4/cyclin D1 = CDK4/cyclin D1 (Homo sapiens, UniProt P11802); test: biochemical; design: radiometric kinase inhibition assay with [gamma-33P]ATP, P-81 phosphocellulose spotting, digital image analysis
Method: as §1

T2 sequence (Q00536 whole entry): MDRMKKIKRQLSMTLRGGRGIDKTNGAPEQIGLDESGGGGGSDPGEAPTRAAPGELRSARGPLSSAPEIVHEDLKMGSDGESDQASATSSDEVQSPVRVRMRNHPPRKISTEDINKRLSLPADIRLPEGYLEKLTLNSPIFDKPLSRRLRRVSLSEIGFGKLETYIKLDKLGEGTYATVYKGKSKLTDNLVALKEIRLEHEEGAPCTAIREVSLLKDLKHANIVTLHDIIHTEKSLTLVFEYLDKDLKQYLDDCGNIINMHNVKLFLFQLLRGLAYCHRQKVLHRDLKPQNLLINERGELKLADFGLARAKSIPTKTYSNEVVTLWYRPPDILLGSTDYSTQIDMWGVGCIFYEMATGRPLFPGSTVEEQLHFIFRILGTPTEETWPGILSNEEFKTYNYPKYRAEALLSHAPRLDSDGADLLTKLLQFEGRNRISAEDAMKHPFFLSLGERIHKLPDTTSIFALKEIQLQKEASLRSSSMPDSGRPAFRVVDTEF
CDK5/p25, sequence (Q00535 whole entry): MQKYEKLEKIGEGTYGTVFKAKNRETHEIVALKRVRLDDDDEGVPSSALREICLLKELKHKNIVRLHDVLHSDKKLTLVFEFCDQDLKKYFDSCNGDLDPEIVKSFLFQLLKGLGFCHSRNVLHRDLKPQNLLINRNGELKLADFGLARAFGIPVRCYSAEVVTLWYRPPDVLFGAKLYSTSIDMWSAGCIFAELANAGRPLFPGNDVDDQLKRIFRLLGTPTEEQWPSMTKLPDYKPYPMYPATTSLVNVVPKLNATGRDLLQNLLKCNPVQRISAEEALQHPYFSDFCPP
CDK5/p25, sequence (Q15078 whole entry partner): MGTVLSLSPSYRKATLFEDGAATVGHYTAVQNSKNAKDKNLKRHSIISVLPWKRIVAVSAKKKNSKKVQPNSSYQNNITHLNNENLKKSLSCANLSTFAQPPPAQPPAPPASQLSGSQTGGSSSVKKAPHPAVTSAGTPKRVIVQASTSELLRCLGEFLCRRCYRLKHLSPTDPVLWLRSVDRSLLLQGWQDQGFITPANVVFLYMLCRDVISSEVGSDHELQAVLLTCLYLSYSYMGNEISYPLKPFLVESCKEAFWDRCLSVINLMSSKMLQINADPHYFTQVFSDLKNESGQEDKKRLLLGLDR
CDK9/cyclin T, sequence (P50750 whole entry): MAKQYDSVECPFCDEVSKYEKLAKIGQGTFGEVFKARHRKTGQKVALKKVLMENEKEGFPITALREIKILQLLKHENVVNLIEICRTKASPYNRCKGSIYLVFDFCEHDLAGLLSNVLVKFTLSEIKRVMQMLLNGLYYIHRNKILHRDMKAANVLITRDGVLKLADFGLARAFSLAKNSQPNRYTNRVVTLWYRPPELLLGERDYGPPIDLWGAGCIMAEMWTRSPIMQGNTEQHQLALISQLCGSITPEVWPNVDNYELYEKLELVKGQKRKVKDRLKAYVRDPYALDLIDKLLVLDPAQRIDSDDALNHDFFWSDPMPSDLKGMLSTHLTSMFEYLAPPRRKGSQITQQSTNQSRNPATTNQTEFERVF
CDK9/cyclin T, sequence (O60563 whole entry partner): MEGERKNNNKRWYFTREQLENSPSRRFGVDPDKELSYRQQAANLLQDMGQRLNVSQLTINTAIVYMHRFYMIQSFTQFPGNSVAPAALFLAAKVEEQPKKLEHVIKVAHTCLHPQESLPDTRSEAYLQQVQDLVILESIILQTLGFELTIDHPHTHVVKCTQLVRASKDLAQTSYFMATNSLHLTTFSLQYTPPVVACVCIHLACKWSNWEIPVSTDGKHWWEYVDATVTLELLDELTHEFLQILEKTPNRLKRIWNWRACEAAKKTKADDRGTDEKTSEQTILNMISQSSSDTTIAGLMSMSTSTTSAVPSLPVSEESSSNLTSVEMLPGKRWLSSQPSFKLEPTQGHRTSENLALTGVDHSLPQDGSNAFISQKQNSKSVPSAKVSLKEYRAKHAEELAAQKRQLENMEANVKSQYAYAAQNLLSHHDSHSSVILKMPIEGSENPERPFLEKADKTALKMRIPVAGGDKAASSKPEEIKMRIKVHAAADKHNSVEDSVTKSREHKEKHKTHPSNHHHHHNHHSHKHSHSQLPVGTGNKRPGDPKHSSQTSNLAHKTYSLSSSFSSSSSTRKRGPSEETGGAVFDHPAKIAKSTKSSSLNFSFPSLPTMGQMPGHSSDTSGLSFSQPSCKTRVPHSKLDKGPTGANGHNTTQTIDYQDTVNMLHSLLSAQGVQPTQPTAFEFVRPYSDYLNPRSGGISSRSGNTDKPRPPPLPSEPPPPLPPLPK
CDK4/cyclin D1, sequence (P11802 whole entry): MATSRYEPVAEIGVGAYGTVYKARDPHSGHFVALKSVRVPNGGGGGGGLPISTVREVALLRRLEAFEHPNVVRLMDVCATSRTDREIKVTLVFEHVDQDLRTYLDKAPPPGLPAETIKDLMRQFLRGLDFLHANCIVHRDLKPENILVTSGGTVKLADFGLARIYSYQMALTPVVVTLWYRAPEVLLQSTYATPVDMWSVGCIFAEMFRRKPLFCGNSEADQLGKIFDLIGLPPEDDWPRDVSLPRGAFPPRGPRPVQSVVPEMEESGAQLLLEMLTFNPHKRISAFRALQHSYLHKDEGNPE
CDK4/cyclin D1, sequence (P24385 whole entry partner): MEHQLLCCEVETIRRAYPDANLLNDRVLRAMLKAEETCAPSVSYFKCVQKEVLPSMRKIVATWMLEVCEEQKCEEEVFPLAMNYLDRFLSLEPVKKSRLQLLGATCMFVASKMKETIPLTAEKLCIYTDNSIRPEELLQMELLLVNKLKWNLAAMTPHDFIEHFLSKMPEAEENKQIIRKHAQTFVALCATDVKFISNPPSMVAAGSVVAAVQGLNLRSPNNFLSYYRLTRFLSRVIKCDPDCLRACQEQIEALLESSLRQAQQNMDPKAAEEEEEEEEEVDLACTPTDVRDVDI
CDK1/cyclin B, sequence (P06493 whole entry): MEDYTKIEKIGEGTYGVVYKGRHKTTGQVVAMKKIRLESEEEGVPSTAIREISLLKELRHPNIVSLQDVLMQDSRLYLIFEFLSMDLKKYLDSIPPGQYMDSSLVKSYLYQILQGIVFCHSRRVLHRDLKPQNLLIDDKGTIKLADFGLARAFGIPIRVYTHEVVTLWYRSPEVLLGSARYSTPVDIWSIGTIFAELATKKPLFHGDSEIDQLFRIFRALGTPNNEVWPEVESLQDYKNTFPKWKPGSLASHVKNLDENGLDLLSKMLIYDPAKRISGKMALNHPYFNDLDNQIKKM
CDK1/cyclin B, sequence (P14635 whole entry partner): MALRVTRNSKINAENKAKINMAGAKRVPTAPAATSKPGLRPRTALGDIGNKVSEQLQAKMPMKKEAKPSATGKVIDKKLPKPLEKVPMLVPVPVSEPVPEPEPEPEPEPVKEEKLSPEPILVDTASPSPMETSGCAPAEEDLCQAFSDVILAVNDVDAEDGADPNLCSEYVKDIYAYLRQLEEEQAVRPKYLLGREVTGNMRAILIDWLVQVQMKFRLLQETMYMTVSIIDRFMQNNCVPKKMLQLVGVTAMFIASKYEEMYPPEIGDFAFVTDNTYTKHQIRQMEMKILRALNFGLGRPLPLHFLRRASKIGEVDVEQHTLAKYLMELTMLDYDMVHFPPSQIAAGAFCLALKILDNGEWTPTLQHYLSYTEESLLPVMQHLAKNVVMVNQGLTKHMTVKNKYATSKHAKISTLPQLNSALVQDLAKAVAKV
T3 sequence (P50613 2-346): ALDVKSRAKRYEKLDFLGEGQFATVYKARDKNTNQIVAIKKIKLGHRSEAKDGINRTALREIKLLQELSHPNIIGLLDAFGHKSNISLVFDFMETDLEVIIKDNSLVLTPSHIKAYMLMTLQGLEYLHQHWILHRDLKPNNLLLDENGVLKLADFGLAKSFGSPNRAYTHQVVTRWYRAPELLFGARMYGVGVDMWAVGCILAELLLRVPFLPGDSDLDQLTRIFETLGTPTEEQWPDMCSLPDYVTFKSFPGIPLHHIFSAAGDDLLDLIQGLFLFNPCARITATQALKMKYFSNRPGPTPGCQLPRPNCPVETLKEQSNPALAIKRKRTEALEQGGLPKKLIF
T3 sequence (P51946 whole entry partner): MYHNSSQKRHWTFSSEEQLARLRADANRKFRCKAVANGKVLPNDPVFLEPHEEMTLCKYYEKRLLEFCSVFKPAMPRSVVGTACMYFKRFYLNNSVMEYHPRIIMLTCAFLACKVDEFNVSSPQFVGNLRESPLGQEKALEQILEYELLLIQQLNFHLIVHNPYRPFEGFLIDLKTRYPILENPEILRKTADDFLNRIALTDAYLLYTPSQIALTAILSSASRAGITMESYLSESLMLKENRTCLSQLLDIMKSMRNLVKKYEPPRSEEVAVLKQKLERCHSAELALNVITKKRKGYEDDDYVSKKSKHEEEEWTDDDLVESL
T3 sequence (P51948 whole entry partner): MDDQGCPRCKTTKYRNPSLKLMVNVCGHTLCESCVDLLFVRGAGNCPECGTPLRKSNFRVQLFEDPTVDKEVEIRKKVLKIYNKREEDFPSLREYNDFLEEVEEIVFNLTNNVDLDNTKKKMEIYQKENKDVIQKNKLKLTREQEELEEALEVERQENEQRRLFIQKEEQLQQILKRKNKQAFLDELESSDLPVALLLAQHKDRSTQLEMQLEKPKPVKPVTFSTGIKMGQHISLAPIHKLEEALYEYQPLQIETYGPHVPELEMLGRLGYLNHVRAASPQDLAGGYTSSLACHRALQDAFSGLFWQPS
T1 sequence (P48730 whole entry): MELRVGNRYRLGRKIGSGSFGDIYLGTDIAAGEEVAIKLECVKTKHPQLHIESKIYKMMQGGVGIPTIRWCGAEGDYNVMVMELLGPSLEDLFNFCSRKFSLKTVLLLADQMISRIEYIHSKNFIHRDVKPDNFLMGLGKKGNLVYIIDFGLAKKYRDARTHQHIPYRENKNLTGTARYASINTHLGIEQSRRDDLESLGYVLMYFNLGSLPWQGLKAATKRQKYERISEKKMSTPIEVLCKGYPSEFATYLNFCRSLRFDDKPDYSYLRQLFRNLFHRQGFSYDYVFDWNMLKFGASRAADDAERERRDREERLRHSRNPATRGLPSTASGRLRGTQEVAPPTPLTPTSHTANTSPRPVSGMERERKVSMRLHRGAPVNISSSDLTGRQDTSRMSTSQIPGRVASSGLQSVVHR

remaining activity at 1 µM (CK1δ): 19%
remaining activity at 1 µM (CDK16): 19%
IC50 (CDK7): 20 nM
IC50 (CDK2/cyclin E): 250 nM
IC50 (CDK1/cyclin B): 5140 nM
IC50 (CDK9/cyclin T): 6550 nM
IC50 (CDK5/p25): 1120 nM
IC50 (CDK2/cyclin A): 500 nM
IC50 (CDK4/cyclin D1): > 20000 nM
Structure (SMILES): CC(C)c1n[nH]c2c(NCc3ccccc3-c3ccccc3)nc(SC3CCNCC3)nc12 [compound 4, 5-(piperidin-4-yl)thio-3-isopropyl-7-(2-phenylbenzyl)amino-1(2)H-pyrazolo[4,3-d]pyrimidine]
